According to patent US20210308034A1, “PREBIOTIC COMPOSITIONS AND METHODS FOR MAINTAINING A HEALTHY SKIN MICROBIOTA” (KIMBERLY-CLARK WORLDWIDE, INC., priority 2018, published 2021):
Where a SMILES comes first, the peptide text is derived from it.

How the values were obtained:
Type in all cases: cell-based
[1] = test system: Corynebacterium jeikum (ATCC 33033); assay: Carbohydrate Screening Test Method (Biolog phenotype microarray), Bacteria Code B; conditions: for Carbohydrate Screening Results, Bacteria Code B: Commensal, carbon microarray plate, OD 600 nm, 36 hr, 33° C., positive = more than 0.05 OD units above zero, blank cell = not utilized
Procedure: The screening process was set up to determine which carbohydrate sources promoted commensal and/or pathogenic bacteria as well as to obtain individual and combinations of carbohydrate sources that could serve as microbiota balancing agents that can support or maintain the healthy proportions of commensal skin bacteria of Corynebacterium, Staphylococcus, and Micrococcus. The screening was conducted utilizing Biolog phenotype microarray plates (Hayward, Calif.). Table 1 provides a coded list of the commensal and pathogenic skin bacteria that the carbohydrates were screened against.
(§1) The Bacteria Codes B, D, E, I, and J are commensal bacteria and are shaded in Table 2 for references purposes. The bacteria codes were each placed in a carbon microarray plate and screened through the Carbohydrate Screening Test Method, as described in the Test Methods section herein. If a particular bacteria code utilized a specific carbohydrate source as described in the Carbohydrate Screening Test Method, then the corresponding cell in Table 2 was marked with a Y (short for “Yes”).
To do so, the respective microarray data for the 79 carbohydrate sources was run through the GrowthRates 2.1 program to obtain growth parameters, such as growth rates and maximum yield data as described by the Belingham Research Institute, Hall, B. G., H. Acar and M. Barlow. […] Mol. Biol. Evol. […] The max yield parameters generated were utilized to calculate ratios of tested commensal bacteria. The ratios calculated were compared back to the desired ratios identified above (Corynebacterium to Staphylococcus of 1.3, Corynebacterium to Micrococcus of 1.4, and Staphylococcus to Micrococcus of 1.1).
(§2) As an example of this methodology used to calculate the commensal bacteria ratios and the difference between the calculated ratios and the desired ratios, an example code from Table 3 will be described. […] The max yields were then used to calculate ratios the bacteria would reach in a co-culture.
A passage of the culture was made using a sterile swab and streaked onto two M9*2 agar plates to prepare the incubated culture for the phenotype microarray pate according to Table 4.
(§3) All cultures were harvested and washed before inoculation into the carbon microarray plate (BiOLOG, Hayward Calif.), with Biolog Plates PM1 and PM2 each having a source definition of Carbon. The bacteria on the M9*2 agar was suspended via agitation with an inoculating loop in 1 mL of M9*1 media for collection in a 1.7 mL micro centrifuge tube, as noted in Table 4.

[2] = test system: Micrococcus luteus (SK58); assay: Carbohydrate Screening Test Method (Biolog phenotype microarray), Bacteria Code E; conditions: for Carbohydrate Screening Results, Bacteria Code E: Commensal, carbon microarray plate, OD 600 nm, 36 hr, 33° C., positive = more than 0.05 OD units above zero, blank cell = not utilized
Text: (§4) After creating desired ratios of various commensal skin bacteria in a healthy skin microbiome, 188 different carbohydrate sources were screened as the next step in determining potential prospects for skin microbiota balancing agents. The screening process was set up to determine which carbohydrate sources promoted commensal and/or pathogenic bacteria as well as to obtain individual and combinations of carbohydrate sources that could serve as microbiota balancing agents that can support or maintain the healthy proportions of commensal skin bacteria of Corynebacterium, Staphylococcus, and Micrococcus. The screening was conducted utilizing Biolog phenotype microarray plates (Hayward, Calif.). Table 1 provides a coded list of the commensal and pathogenic skin bacteria that the carbohydrates were screened against.
as §1
To do so, the respective microarray data for the 79 carbohydrate sources was run through the GrowthRates 2.1 program to obtain growth parameters, such as growth rates and maximum yield data as described by the Belingham Research Institute, Hall, B. G., H. Acar and M. Barlow. 2014 Growth Rates Made Easy. Mol. Biol. Evol. 31:232-238 doi:10.1093/molbev/mst197. The max yield parameters generated were utilized to calculate ratios of tested commensal bacteria. The ratios calculated were compared back to the desired ratios identified above (Corynebacterium to Staphylococcus of 1.3, Corynebacterium to Micrococcus of 1.4, and Staphylococcus to Micrococcus of 1.1).
as §2

[3] = test system: Klebsiella pneumoniae (ATCC BAA-2146); conditions: Pathogenic; carbon microarray plate, OD 600 nm, 36 hr, 33° C.; positive = more than 0.05 OD units above zero; blank cell = not utilized
Text: as §4
Table 2 provides the results of screening various carbohydrate sources against the commensal and pathogenic bacteria codes listed in Table 1. The Bacteria Codes B, D, E, I, and J are commensal bacteria and are shaded in Table 2 for references purposes. The bacteria codes were each placed in a carbon microarray plate and screened through the Carbohydrate Screening Test Method, as described in the Test Methods section herein. If a particular bacteria code utilized a specific carbohydrate source as described in the Carbohydrate Screening Test Method, then the corresponding cell in Table 2 was marked with a Y (short for “Yes”). […] Many of the carbohydrate sources were utilized by both commensal and pathogenic bacteria, and as such, would not provide an advantage for selective growth of the commensal bacteria. However, some of the carbohydrate sources were only used by commensal bacteria and were identified for further testing as described herein.
The study employed 10 representative skin bacteria; Staphylococcus epidermidis ATCC 14990, Staphylococcus epidermidis M23864:W2, Staphylococcus aureus ATCC 6538, Staphylococcus aureus ATCC 25904 (Newman), Pseudomonas aeruginosa ATCC 9027, Micrococcus luteus ATCC […], Micrococcus luteus SK58, Klebsiella pneumoniae ATCC BAA-2146, Corynebacterium amycolatum SK46, and Corynebacterium minutissimum ATCC 23348. Cultures were started from freezer bead stocks by placing a single bead into 20 mL of tryptic soy broth (TSB) for all organisms except C. amycolatum SK46 and C. minutissimum ATCC 23348, which were placed into brain heart infusion (BHI) broth. Cultures were grown for about 24 hr at 37° C. except M. luteus ATCC 49732 and M. luteus SK58, which were grown at 30° C. A passage of the culture was made using a sterile swab and streaked onto two M9*2 agar plates to prepare the incubated culture for the phenotype microarray pate according to Table 4. Plates were incubated for about 24 hr at 37° C. except for M. luteus ATCC 49732 and M. luteus SK58, which were incubated at 30° C. for 24 hr.
as §3, with “4. The bacteria was suspended again in M9*1 media, agitated, and collected into the same 1.7 mL microcentrifuge tube used in the previous step. The tube was centrifuged for 5 minutes at 4,000×G, supernatant decanted, the pellet was resuspended in 1 mL of M9*1 media, and vortex. This washing process was repeated for a total of 4 times.” for “4.”
A tenfold dilution in M9*1 media was performed using 1 mL of the washed bacterial culture. Of the tenfold dilution 200 μL was placed in an untreated 96-well plate (Falcon, Pasadena Tx.) for an initial optical density (OD) reading at a wavelength of 600 nm. The OD was used to correlate to colony forming units (CFU) per milliliter by using linear regression lines for each organism. […]

Compound	Carbohydrate Screening Results, Bacteria Code B [1]	Carbohydrate Screening Results, Bacteria Code E [2]	also measured
O=C(O)CO [Glycolic Acid]	Y	Y	
Tween 40	Y		
NCC(=O)N[C@@H](CC(=O)O)C(=O)O [Glycyl-L-Aspartic Acid] (H-Gly-Asp-OH)		Y	
O=C(O)[C@@H]1CCCN1 [L-Proline]	Y	Y	
CC(O)CO (stereo not drawn) [1,2-Propanediol]	Y	Y	
CC(=O)N[C@H]1[C@@H](O)[C@H](O)[C@@H](CO)O[C@H]1O [N-Acetyl-β-D-Mannosamine]	Y	Y	
OC[C@@H](O)[C@H](O)[C@H](O)[C@@H](O)CO [Dulcitol]	Y	Y	
N[C@@H](CC(=O)O)C(=O)O [L-Aspartic Acid]	Y		Carbohydrate Screening Results, Bacteria Code C [3]: Y
O=C(O)[C@@H](O)[C@H](O)[C@H](O)[C@@H](O)C(=O)O [Mucic Acid]	Y		
CCC(=O)O [Propionic Acid]	Y	Y	
O=C(O)CCC(=O)C(=O)O [α-Keto-Glutaric Acid]	Y		
CCC(=O)C(=O)O [α-Keto-Butyric Acid]	Y		
O=C1CCC(C(=O)O)O1 (stereo not drawn) [α-Hydroxy Glutaric Acid-γ-Lactone]	Y	Y	
NC(=O)CC[C@H](N)C(=O)O [L-Glutamine]	Y		Carbohydrate Screening Results, Bacteria Code C [3]: Y
Nc1ncnc2c1ncn2[C@@H]1O[C@H](CO)[C@@H](O)[C@H]1O [Adenosine]	Y	Y	
NC(=O)[C@@H](O)[C@@H](O)[C@H](O)[C@@H](O)C=O [Glucuronamide]	Y	Y	
C[C@@H](N)C(=O)O [D-Alanine]	Y	Y	max yield ([1]; C. jeikeium, GrowthRates 2.1 on microarray data): 0.157; max yield ([2]; M. luteus SK58, GrowthRates 2.1 on microarray data): 0.098
C[C@H](O)[C@@H](N)C(=O)O [D-Threonine]	Y	Y	
O=C(O)C[C@H](O)C(=O)O [L-Malic Acid]	Y	Y	
OC[C@H]1O[C@@H](Oc2ccc(O)cc2)[C@H](O)[C@@H](O)[C@@H]1O [Arbutin]			Carbohydrate Screening Results, Bacteria Code C [3]: Y
O=CO [Formic Acid]	Y	Y	

Compound	Carbohydrate Screening Results, Bacteria Code B [1]	Carbohydrate Screening Results, Bacteria Code E [2]	also measured
O=C[C@@H](O)[C@H](O[C@@H]1O[C@H](CO)[C@H](O)[C@H](O)[C@H]1O)[C@H](O)CO [3-0-β-D-Galacto-pyranosyl-D-Arabinose]			Carbohydrate Screening Results, Bacteria Code C [3]: Y
O=C(O)CC(O)(CC(=O)O)C(=O)O [Citric Acid]	Y		
N[C@@H](C(=O)O)[C@@H](O)[C@H](O)[C@H](O)CO [D-Glucosaminic Acid]		Y	
N[C@H](CC(=O)O)C(=O)O [D-Aspartic Acid]	Y	Y	
O=C(O)C(O)C(O)C(=O)O (stereo not drawn) [m-Tartaric Acid]	Y		
O=C(O)/C=C/C(=O)O [Fumaric Acid]	Y	Y	
NCC(=O)N[C@@H](CCC(=O)O)C(=O)O [Glycyl-L-Glutamic Acid] (H-Gly-Glu-OH)		Y	
C[C@@H](O)[C@H](N)C(=O)O [L-Threonine]	Y	Y	
C[C@H](N)C(=O)NCC(=O)O [L-Alanyl-Glycine] (H-Ala-Gly-OH)	Y	Y	
O=C(O)Cc1cccc(O)c1 [m-Hydroxy Phenyl Acetic Acid]			Carbohydrate Screening Results, Bacteria Code C [3]: Y
O=C(O)[C@H](O)[C@@H](O)[C@H](O)[C@H](O)CO[C@H]1O[C@H](CO)[C@H](O)[C@H](O)[C@H]1O [Melibionic Acid]			Carbohydrate Screening Results, Bacteria Code C [3]: Y
O=CC(=O)O [Glyoxylic Acid]	Y		
OC[C@H]1O[C@H](OC[C@H]2O[C@H](O[C@]3(CO)O[C@H](CO)[C@@H](O)[C@@H]3O)[C@H](O)[C@@H](O)[C@@H]2O)[C@H](O)[C@@H](O)[C@H]1O [D-Raffinose]			Carbohydrate Screening Results, Bacteria Code C [3]: Y
CC(=O)CC(=O)O [Acetoacetic Acid]	Y	Y	
CCC(O)C(=O)O (stereo not drawn) [α-Hydroxy Butyric Acid]	Y		
COC(=O)[C@@H](C)O [D-Lactic Acid Methyl Ester]			Carbohydrate Screening Results, Bacteria Code C [3]: Y
C[C@H](N)C(=O)O [L-Alanine]		Y	
O=C(O)CC(CC(=O)O)C(=O)O [Tricarballylic Acid]		Y	
NCCc1ccccc1 [Phenylethyl-amine]	Y		
O=C(O)CC(Br)C(=O)O (stereo not drawn) [Bromo Succinic Acid]	Y		
